Consider one compound from US7208512B2, “Benzodifuranimidazoline and benzofuranimidazoline derivatives and their use for the treatment of glaucoma” (Alcon, Inc., priority 2001, dated 2007).

Assay [1] deals with T1, 5-HT2 receptor (Rattus norvegicus, UniProt P14842). Description: 5-HT2 receptor binding assay ([125I]DOI competition, rat cerebral cortex homogenates). The protocol:
Aliquots of post mortem rat cerebral cortex homogenates (400 μl) dispersed in 50 mM TrisHCl buffer (pH 7.4) are incubated with [^125I]DOI (80 pM final) in the absence or presence of methiothepin (10 μM final) to define total and non-specific binding, respectively, in a total volume of 0.5 ml. The assay mixture is incubated for 1 hour at 23° C. in polypropylene tubes and the assays terminated by rapid vacuum filtration over Whatman GF/B glass fiber filters previously soaked in 0.3% polyethyleneimine using ice-cold buffer. Test compounds (at different concentrations) are substituted for methiothepin. Filter-bound radioactivity is determined by scintillation spectrometry on a beta counter. The data are analyzed using a non-linear, iterative curve-fitting computer program (Bowen et al. 1995) to determine the compound affinity parameter.

For assay [2], the target named is T1, 5-HT2 receptor. The assay can be described thus: 5-HT2 functional assay: phosphoinositide (PI) turnover in A7r5 rat vascular smooth muscle cells. Type of assay: cell-based. Also on record: A7r5 rat vascular smooth muscle cells; endogenous in cells; host or cells: A7r5 rat vascular smooth muscle cells. Conditions: [3H]-IPs production in A7r5 cells. As to the method:
The relative agonist activity of serotonergic compounds at the 5-HT2 receptor can be determined in vitro using the ability of the compounds to stimulate the production of [^3H]inositol phosphates in [^3H]myo-inositol-labeled A7r5 rat vascular smooth muscle cells by their ability to activate the enzyme phospholipase C. These cells are grown in culture plates, maintained in a humidified atmosphere of 5% CO2 and 95% air and fed semi-weekly with Dulbecco's modified Eagle medium (DMEM) containing 4.5 g/l glucose and supplemented with 2 mM glutamine, 10 μg/ml gentamicin, and 10% fetal bovine serum. […] Confluent cells are exposed for 24–30 hrs to 1.5 μCi [^3H]-myo-inositol (18.3 Ci/mmol) in 0.5 ml of serum-free medium. Cells are then rinsed once with DMEM/F-12 containing 10 mM LiCl prior to incubation with the test agent (or solvent as the control) in 1.0 ml of the same medium for 1 hr at 37° C., after which the medium is aspirated and 1 ml of cold 0.1 M formic acid added to stop the reaction. […] The eluate (4 ml) is collected, mixed with 15 ml scintillation fluid, and the total [^3H]-IPs determined by scintillation counting on a beta-counter. Concentration-response data are analyzed by the sigmoidal fit function of the Origin Scientific Graphics software (Microcal Software, Northampton, Mass.) to determine agonist potency (EC50 value) and efficacy (Emax). […]

T1 sequence (P14842 whole entry): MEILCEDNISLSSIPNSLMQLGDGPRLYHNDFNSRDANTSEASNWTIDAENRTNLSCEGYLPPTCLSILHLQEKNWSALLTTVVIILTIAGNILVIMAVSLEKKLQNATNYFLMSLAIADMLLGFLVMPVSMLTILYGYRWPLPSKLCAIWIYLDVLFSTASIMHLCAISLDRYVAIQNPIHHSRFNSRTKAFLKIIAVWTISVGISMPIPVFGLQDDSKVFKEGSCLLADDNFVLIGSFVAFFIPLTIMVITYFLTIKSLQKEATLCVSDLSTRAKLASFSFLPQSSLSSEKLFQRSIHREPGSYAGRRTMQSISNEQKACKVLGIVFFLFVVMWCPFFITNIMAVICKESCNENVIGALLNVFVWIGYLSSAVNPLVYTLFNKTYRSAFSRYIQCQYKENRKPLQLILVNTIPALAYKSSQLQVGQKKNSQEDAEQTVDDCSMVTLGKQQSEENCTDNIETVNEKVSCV

Consider `COc1cc(C[C@@H](C)N)c(OC)cc1I` [(R)-DOI, reference compound], for which the IC50 (as a rule, the concentration that gives 50% inhibition) on 5-HT2 receptor [1] was 0.46 nM. For the same compound, a half-maximal response at 5-HT2 receptor [2] (EC50) required 277 nM.
